Measured values as given in patent US7339042B2, “Gene delivery to tumors” (University of Florida Research Foundation, Inc., priority 2003, dated 2008).
pIC50: −log10 of the molar value. “Also recorded” adds a separate entry of the source. No end group written: not given here.

Tests used:
[1] = system: RG2 cells; experiment: Fusion peptide cell killing, propidium iodide/FACS viability, RG2 cells; format: cell-based, rat
Experimental: (§1) Other experiments were performed using two glioma cell lines, i.e., T98G and RG2. 1×10^6 cells per well were incubated in 6-well plates with peptides in complete media for 1 hr. Cells were removed from the plate using a cell stripper and the percentage of viable cells was determined by staining with propidium iodide and analyzing by fluorescence activated cell sorting (FACS).
There are 4 conserved amino acid differences between the rat and human CDKI sequence. Both sequences were attached to Tat and tested for cell killing activity in the rat glioma RG2 cells. Also the effect of orientation of the Tat and CDKI domains were tested. RG2 cells were plated on 6 well plates at approximately 70% confluency. Each of the peptides was added to the wells with increasing concentration. After 1 hr, cells were removed from the plates, washed 2× with PBS, stained with propidium iodide and analyzed by FACS for viable cells.
(§2) Cell viability studies were performed by plating the cells under the same conditions as the uptake studies. Cells were incubated with fluorescent peptides for 1 hr at 37° C. The cells were removed from the plate using cell striper. They were labeled with propidium iodide and fluorescein-AM. Percent PI positive cells were determined by FACS.
The cytotoxicity of the chimeric peptides was characterized using a cell viability assay. Peptides were added to cells at a fixed concentration. After a 30-minute incubation, cells were removed from the plate, stained with propidium iodide and the % positive cells were determined by FACS (fluorescent activated cell scanning). The test conditions were Tat, ANT, Tat-P14ARF, ANT-P14ARF and P14ARF. T98G cells were tested along with RG2 cells and A172 cells.

[2] = system: endothelial cells and smooth muscle cells of rat cerebral arteries; experiment: Uptake of fluorescent peptides by pressure-mounted rat cerebral arteries; format: cell-based
Experimental: Tat-P16 peptides were prepared and labeled with fluorescein for use in uptake studies using intact blood vessels isolated from rat brain. Blood vessels were dissected from rat brain and stabilized in an isolated perfusion system in which vessels were attached on either end to catheters and placed under physiological pressure. Following a 10 minute perfusion of the isolated vessels with flurorescent Tat-P16 peptide (1 μM), vessels were examined for uptake of the peptides. […] Within the endothelial cells, the labeled peptides were seen to be localized to the cell nuclei, further confirming uptake of the peptides by the cells.
The peptides are fairly labile in the media and approximately 50% are degraded upon incubation at 37° C. in complete media (qualitative analysis by PAGE) after 1 hour. […] Uptake of these peptides and cell killing activity was tested in a 3 dimensional organ culture using rat cerebral arteries cultured under physiological pressure and flow. A segment of the rat cerebral artery is surgically removed and placed in ringer's solution. Using a surgical stereoscope, the blood vessel is tied at either end to two cannulas on a teflon stage. Ringer's solution is perfused through the lumen of the vessel at a constant rate that maintains physiologic hydrostatic pressure. The fluorescent peptide was introduced intraluminally by perfusing a 1 μM solution of peptide through the lumen over a 10 minute period.
Rats were anesthetized by intraperitoneal injection of pentobarbital sodium (160 mg/kg) and killed by decapitation. The brain was removed and placed in an ice-cold oxygenated physiological cerebrospinal fluid (PCSF, see below for composition). Cerebellar arteries were isolated and mounted in an arteriograph as described previously (Knot and Nelson 1998). The arteriograph was placed on an inverted microscope and the artery was visualized with a monochrome CCD camera coupled to a calibrated video caliper system to measure arterial diameter. The arteries were slowly pressurized to 70 mmHg under no flow conditions using a pressure servo-null system (Living Systems Inc., Burlington Vt.), and warmed to 37° C. while being continuously superfused (5 ml/min) with PCSF bubbled with 21% O2, 5% CO2, 74% N2 (pH 7.35-7.40 in the bath). […] Myogenic tone is calculated by the following equation: Myogenic tone=(Dp−Da)/Dp×100
(§3) In some experiments, the arterial segments were denuded of endothelium by passing an air bubble through the lumen, thus exposing the smooth muscle cells to luminally administered peptides. Constriction to pressure and 60 mM KCl and dilation of arteries with myogenic tone to 16 mM KCl were used as benchmarks of functional arteries. Peptide containing PCSF was perfused intraluminally at an inlet pressure of 70 mmHg with the outlet open, for 20 min and then perfused with normal PCSF. This procedure ensures a 20 min of exposure of the arteries to the peptide.

[3] = system: RG2 cells; experiment: Fluorescein peptide uptake by RG2 cells, fluorescence microscopy; format: cell-based, rat
Experimental: (§4) For fluorescent microscopy studies cells were plated on 2 chamber cover slips at a density of 1×10^4 cells/chamber. Cells were incubated with […] peptide for 30 minutes in completed media, washed with PBS 3× and imaged using a Nikon Axiophot inverted fluorescent microscope. Images were taken using a Spot CCD camera.
Similar observations were obtained for all the peptides in another human glioblastoma cell line, T98G.

[4] = system: rat cerebral arteries; experiment: Vasodilation and vasoconstriction response of rat cerebral arteries before and after peptide; format: cell-based; conditions: after vs before intraluminal peptide
Experimental: The blood vessels were put in culture described above and perfused with buffer of the same composition as cerebrospinal fluid. Vessel diameter was measured before and after administration of each reagent. 3 μM of each peptide was perfused through for 10 minutes followed by a 10 minute wash through. Vasoconstriction and vasodilation were determined for each vessel before peptide was applied. Perfusion was continued until the vessels relaxed to their original diamter (approximately 30 minutes). The vasoconstriction and vasodilation reponse was remeasured after the 10 minute wash through. The 60 mM KCl and 16 mM KCl conditions are […], respectively. Histamine and Bradykinin are endothelial cell vasodilators.
as §3
(§5) Effect of peptide on endothelial and smooth muscle function was evaluated by histamine (0.3 and 1 μM) and bradykinin (0.5 μM) (endothelium-dependent vasodilators) and 16 and 60 mM KCl (results in dilation and constriction of arteries by hyperpolarizing and depolarizing smooth muscle, respectively). These drug solutions were added to the superfusate and applied to the arteries extraluminally for 10 to 15 min before and after intraluminal perfusion with peptides. Effects of these agents were expressed as percent change in myogenic tone (decrease for dilators and increase for constrictors). Experiments were concluded by exposing the arteries to calcium free PCSF to obtain the passive diameter. Cell viability was determined by adding H3334 (Hoechst viability stain, final concentration 1 μM) and propidium iodide (final concentration 1 μM) to the arteriograph after the peptide incubation. Fluorescent micrographs were taken of the vessels after incubation with peptides and following addition of the vital stains using Till Photonics imaging system (Martinsried, Germany).

[5] = system: T98G cells; experiment: Fusion peptide cell killing, propidium iodide/FACS viability, T98G cells; format: cell-based, human; conditions: 10 μM peptide, 1 hr
Experimental: as §1, §2

[6] = system: A172 cells; experiment: Fluorescein peptide uptake by A172 cells, fluorescence microscopy; format: cell-based, human; conditions: 30 uM peptide, 1 hr, 37° C., serum containing media
Experimental: as §4
Synthetic peptides derived from HIV Tat (Tat) and the Drosophila antennaepedia homeodomain (ANT) were tested for cell uptake by A172 cells (human glioblastomas). The peptides were labeled at the N-terminus with fluorescein. Cells were incubated with 30 uM peptide at 37° C. in serum containing media. Fluorescent micrographs were taken after 1 hr incubation at 37° C. […] The size of the peptide was increased by added an Mdm-2 binding domain derived from P14ARF. This domain was added to the C-terminus of the Tat and ANT peptides. The P14ARF domain was also placed at the N-terminus followed by the Tat peptide. All the peptides were labeled at the N-terminus with fluorescein and cell incubations similar to the Tat and ANT peptides were tested for cellular uptake. […] Both the bright field and fluorescent micrographs show altered cell morphology.

[7] = system: A172 glioblastoma cells; experiment: Peptide incubation with A172 glioblastoma cells, viability; format: cell-based, human; conditions: 6 μM, 30 minutes at 37° C.
Experimental: Fusion proteins containing a Tat domain and a p16 domain were synthesized as peptides. Two forms of the peptides were made, one with Tat on the amino terminus (designated Tat-P16), and the other with p16 on the amino terminus (P16-Tat). Control peptides were synthesized having only the Tat or P16 sequence. The peptides were incubated with A172 glioblastoma cells, then the cells were assayed for viability.

[8] = system: rat cerebral arteries; experiment: Cell viability staining of arteries (propidium iodide, H3334) after peptide; format: cell-based; conditions: after treatment with peptide
Experimental: No PI statined smooth muscle cell nuclei were observed.
as §5

[9] = intraluminal perfusion of fluorescent peptide

AGGGYGRKKRRQRRRMVRRFLVTLRIRRA [Tat-P14ARF]
% killing (toxicity) ([1]; 10 μM peptide, 1 hr): 61% | pIC50 ([1]; dose response 1 μM to 10 μM): ~5.00 | morphology of the endothelial cells ([2]; after intraluminal exposure): morphology of the endothelial cells was altered | labeling/uptake by endothelial cells [2, 9]: same labeling pattern as the Tat alone | labeling/uptake by smooth muscle cells [2, 9]: No evidence was seen of uptake | labeling/uptake by endothelial cells ([2]; intraluminal perfusion of fluorescent peptide, listed as Tat-P16): taken up by the endothelial cells; also recorded: localized to the endothelial cells | staining pattern (cell uptake) [3]: nuclear staining | endothelium-dependent dilation to histamine and bradykinin [4]: inhibited endothelial cell response to histamine and bradykinin; also recorded: significantly reduced | smooth muscle response to 60 and 16 mM KCl [4]: unaffected; also recorded: not affected | endothelium-dependent dilation to histamine and bradykinin ([4]; listed as Tat-CDKI): lack of response to vasodilators | % killing (toxicity) [5]: 65% | staining pattern (cell uptake) [6]: nuclear staining | effect on cells [7]: began to round up and subsequently die | propidium iodide staining of blood vessels [8]: predominantly horizontal endothelial nuclei being stained indicating cell death
